A word on the melting point: it is the temperature, or range, at which the solid turns liquid.

Consider 111 molecules from a melting point compilation (Tetko et al.).

`CC1(C)Nc2cccc3c(N=Nc4ccc(N=Nc5ccccc5)c5ccccc45)ccc(c23)N1`: the melting point was 120 to 124 °C. For `COc1ccc(N)cc1C(F)(F)F`, the melting point worked out at 59 °C. For the molecule `O=C1CC[C@@H](COC(c2ccccc2)(c2ccccc2)c2ccccc2)O1`, the melting point lay within 148 to 152 °C. The result for `Cc1cc(O)cc(C)c1Br` reads 115 °C; that for `CCN(CC)CCNc1ccc(CO)c2sc3ccccc3c(=O)c12`, 101 °C.

As to `COC(=O)CCc1cc2c(cc1NC(C)=O)NC(=O)CC2`, the melting point came out at 245 °C. In the case of `O=C(O)Cc1cn(-c2ccccc2)nc1-c1ccc(Cl)cc1`, the melting point is 150 °C. Turning to `C[C@]12C=C[C@H](O1)[C@H]1C(=O)OC(=O)[C@H]12`, the melting point lay within 69 to 70 °C. For `N#Cc1c(F)cc(F)cc1F`, the melting point was 57 to 61 °C. `COC(=O)c1sc2scc(C)c2c1C` returned a melting point of 136 to 139 °C. Molecule `C#CC1(O)C=CC(O)(C#C)C=C1` (stereo unspecified) showed a melting point of 125 °C. `CN(C)c1ccc(N=c2cc(-c3ccccc3)oc(-c3ccccc3)c2)cc1` yielded a melting point of 148 °C.

With `O=C(Oc1ccccc1)c1ccc2ccccc2c1O`, the melting point fell in the range of 93 to 97 °C. Molecule `CCOC(=O)C1C(c2ccccc2O)C(C(=O)OCC)C(O)(C(F)(F)F)NC1(O)C(F)(F)F` (stereo unspecified) registered a melting point of 91 °C. Take `N#CCc1ccc(OC(F)(F)F)cc1`: the melting point amounted to 29 °C.

For `CN(C)CCn1cnc2c1c(=O)n(C)c(=O)n2C`, the melting point is 95 °C. The molecule `O=C1OC(c2ccccc2)=N/C1=C\c1cccc(/C=C2\N=C(c3ccccc3)OC2=O)c1` gave a melting point of 247 °C. In turn, `Cc1oc(-c2ccccc2)cc1-c1ccccc1` returned a melting point of 44 °C. Turning to `Ic1cn[nH]c1`, the melting point was determined as 109 °C.

For the molecule `Cc1ccc(C=O)cc1[N+](=O)[O-]`, the melting point is 46 °C. Regarding `CCCCCCCCCCCCCCCCCl`, the melting point is 17.9 °C. Molecule `Oc1cccc(Cl)c1O` yielded a melting point of 48.5 °C. As to `CC(CO)c1c(O)c(O)c2c(c1O)C(=O)C(=O)C1C(C)(C)CCCC21C` (stereo unspecified), the melting point was 239 °C. For `CCC(C)c1cc([N+](=O)[O-])cc([N+](=O)[O-])c1OC(C)=O` (stereo unspecified), the melting point is 26 °C.

`NNC(=O)c1cccc(OCc2ccccc2)c1` showed a melting point of 113 to 115 °C. Molecule `CN(C)C(=S)SC(=S)N(C)C` returned a melting point of 106 to 110 °C. In the case of `O=C(OCc1ccccc1)ON1C(=O)CCC1=O`, the melting point stood at 80 °C.

In turn, `O=C1c2ccccc2C(=O)C1(O)O` had a melting point of 250 °C.

The molecule `NS(=O)(=O)c1ccc(-c2ccc(C=O)o2)cc1` gave a melting point of 199 to 201 °C.

Turning to `CC(=O)CCCCC(C)=O`, the melting point is 44 °C.

In turn, `COc1cccc(C)c1C` yielded a melting point of 29 °C. For `CC(=O)Nc1ccc([N+](=O)[O-])c(Br)c1`, the melting point is 145 °C. Molecule `O=C(c1ccccc1)N1CC(c2ccccc2)C=C1c1ccccc1` (stereo unspecified) registered a melting point of 180 °C.

As for `ON=C(Cc1ccccc1)C(Cc1ccccc1)=NO`, the melting point turned out to be 193 °C. Under `Nc1cccc2nonc12` stands 109 to 111 °C; under `O=C(OCc1ccccc1Br)ON1C(=O)CCC1=O`, 107 °C. The result for `N#CC(F)(Cl)Cl` reads -110 °C.

The molecule `CCCCCCCC=CC(=O)O` gave a melting point of 12 °C. In turn, `O=C(O)CCc1ccccc1Cl` gave a melting point of 95.5 °C.

For the molecule `Cc1ccc(C(c2ccc(C)o2)c2ccccc2C#N)o1`, the melting point stood at 87 °C. Under `CC1(C)CC(=O)C2=C(C1)OC1CCCCC21` (stereo unspecified) stands 63 to 66 °C. Turning to `NCCCCCCCC(=O)O`, the melting point came to 195 °C. As to `CC(O)(c1cc2ccccc2o1)c1cc2ccccc2o1`, the melting point was in the range of 91 to 92 °C. Turning to `CS(=O)(=O)c1ccc(C(=O)C2C(=O)CCCC2=O)c(Cl)c1`, the melting point came to 139 °C.

Regarding `O=C(O)COc1ccc(I)cc1`, the melting point amounted to 157 °C.

`CCOC(=O)N(c1ccccc1)c1ccccc1` registered a melting point of 72 °C. The result for `CC(=O)NCCc1ccccc1[N+](=O)[O-]` reads 94 °C. Molecule `O=C(CCl)Oc1ccccc1` yielded a melting point of 44.5 °C.

Molecule `CS(=O)(=O)c1ccccc1C(=O)O` showed a melting point of 139 °C. `Cc1cc(CCl)nn1C`: the melting point lay within 63 to 66 °C. In the case of `O=C(Oc1c(F)c(F)c(F)c(F)c1F)c1cccnc1`, the melting point was in the range of 65.5 to 67 °C. Take `O=C(c1ccc2ccccc2c1)C(O)c1ccccc1` (stereo unspecified): the melting point was 152 °C.

In turn, `Cc1c(F)c(F)c(C)c(F)c1F` displayed a melting point of 36 °C. Turning to `CC(=O)NCc1ccccc1`, the melting point amounted to 61 °C. Under `O=C1CCCCO1` stands -13 °C; under `Clc1nccc2ccccc12`, 34 °C. In the case of `N#CCCN(CCC#N)c1ccccc1`, the melting point was in the range of 80 to 88 °C. As for `FC(F)(F)c1cc(Cl)c2c(Cl)cc(Cl)cc2n1`, the melting point is 111 to 114 °C. The result for `CCOc1ccccc1F` reads -16.7 °C; that for `Cn1ccc2ccc(C=O)cc21`, 81 °C.

For the molecule `CC(Cl)C(N)=O` (stereo unspecified), the melting point is 76 to 81 °C. Turning to `NC(=O)c1ccc2ccccc2c1`, the melting point is 195 °C. With `CC1(C)c2ccccc2NC1C(=O)O` (stereo unspecified), the melting point fell in the range of 72 to 82 °C. `CSc1nc2ccc(N)cc2s1` had a melting point of 105 to 107 °C. For `C=CC(=O)OCCN(C)C`, the melting point is -60 °C. As for `COc1ccccc1NC(=S)c1cc(C(C)(C)C)c(O)c(C(C)(C)C)c1`, the melting point is 185 to 186 °C. For the molecule `CC1CCc2cc(F)cc3c(=O)c(C(=O)O)cn1c23` (stereo unspecified), the melting point came out at 253 °C. With `C[C@]12CCC(=O)C=C1CCC[C@@H]2O`, the melting point was 57 °C. For the molecule `CC12CCC3C(CCC4CC=CCC43C)C1CC=C2CCc1ccccc1` (stereo unspecified), the melting point worked out at 118 °C.

In turn, `COC(=O)c1noc(C)c1C(C)=NO` gave a melting point of 121 to 124 °C. In turn, `Cn1nnc2c1ccc(=O)n2C1OC(CO)C(O)C1O` (stereo unspecified) yielded a melting point of 211 °C. Consider `CCc1ccccc1C(=O)N(NC(=O)c1ccccc1)C(C)(C)C`, for which the melting point came to 178 °C. Under `CCOC(=O)CNc1cc(Cl)c([N+](=O)[O-])cc1[N+](=O)[O-]` stands 146 °C. Take `CCOC(=O)c1c(-c2ccco2)csc1N`: the melting point lay within 86 to 89 °C. `c1cc2c3c(c1)CCC3CCC2` (stereo unspecified) came in with a melting point of 12.8 °C. Molecule `Cn1nc(C(=O)Cl)cc1-c1ccco1` gave a melting point of 60 to 61 °C.

Molecule `O=[N+]([O-])c1cccc(-c2nnc3n2NC(/C=C/c2ccccc2)S3)c1` (stereo unspecified) had a melting point of 190 to 192 °C. `COc1ccc(C(=O)O)c(OC)c1`: the melting point is 109 °C. Regarding `O=c1c(O)c(O)c(=O)c1=O`, the melting point lay within 331 to 334 °C.

As to `CC(C)c1ccc(CC(=O)O)cc1`, the melting point was found to be 52 °C. The result for `Cc1cc([N+](=O)[O-])cnc1N` reads 260 °C.

In turn, `C#CC1(OC(N)=O)CCCCC1` yielded a melting point of 96 °C. Regarding `O=S(=O)(Cl)c1ccc2nsnc2c1`, the melting point was 69 to 74 °C. As for `C1COCCOCCOCCO1`, the melting point amounted to 16 °C. Molecule `Cc1ccc2cc(C(=O)O)ccc2n1` returned a melting point of 250 °C. `O=C1COC(c2ccc(C(F)(F)F)cc2)CN1` (stereo unspecified) yielded a melting point of 116 °C. The molecule `CC1OC(OC2C=C3CCC4C(CCC5(C)C(c6ccc(=O)oc6)CCC45O)C3(C)CC2)C(O)C(O)C1O` (stereo unspecified) had a melting point of 221 °C. For the molecule `S=c1cc[nH]c(=S)[nH]1`, the melting point is 279 to 281 °C. `CCOC(=O)C(C)Oc1ccc(Oc2cnc3cc(Cl)ccc3n2)cc1` (stereo unspecified) gave a melting point of 92 °C.

Molecule `Fc1ccc(CBr)c(Cl)c1` registered a melting point of 37 °C. In the case of `CC(=O)Nc1ccc(-c2ccc(/N=N/c3ccccc3)cc2)cc1`, the melting point was in the range of 236 to 237 °C. `Cc1ccc(S(=O)(=O)NCCNS(=O)(=O)c2ccc(C)cc2)cc1`: the melting point turned out to be 160 °C. The result for `CC(=O)OCC(=O)C1(OC(C)=O)CCC2(C)C(CCC3C4CCC(=O)C4(C)CCC32)C1` (stereo unspecified) reads 141 °C; that for `O=CNNC=O`, 156 °C; that for `BrCc1ccc(-n2cccn2)cc1`, 81 to 83 °C. Regarding `O=C1NC(=S)NC(=O)C1=NNc1ccccc1[N+](=O)[O-]`, the melting point was 330 °C. For `S=C=Nc1ccc2c(c1)OCCO2`, the melting point is 64 to 66 °C. For the molecule `COC1=CC2C3Cc4ccc(OC)c(O)c4C2(CCN3C)CC1=O` (stereo unspecified), the melting point stood at 162 °C. In turn, `O=C(O)C1c2ccccc2-c2ccccc21` returned a melting point of 229 °C. On to `CCCc1cc(C(N)=S)ccn1`, for which the melting point was determined as 137 °C. Consider `CC12CCC3C(CCC4CC(OCc5ccccc5)CCC43C)C1CCC2O` (stereo unspecified), for which the melting point was determined as 225 °C. Under `CCCSc1ncccc1C(=O)Cl` stands 43.4 °C; under `S=C(n1ccnc1)n1ccnc1`, 96 to 103 °C. `COc1cc(C=NNC(=O)CCn2c(C)nc3ccccc32)ccc1O` yielded a melting point of 230 °C. The result for `OCc1csc(-c2cccs2)n1` reads 87 to 90 °C. Turning to `Cc1nn(C)c(Oc2ccccc2)c1C=NOCc1ccc(C(=O)OC(C)(C)C)cc1`, the melting point was found to be 102 °C.

`Cc1noc(-c2ccc(CBr)cc2)n1` had a melting point of 114 to 116 °C.

`Cc1cc(N)n[nH]1`: the melting point lay in the range of 41 to 43 °C.

In the case of `N#Cc1ccc(C(Cl)=Cc2cccc(C=C(Cl)c3ccc(C#N)cc3[N+](=O)[O-])c2)c([N+](=O)[O-])c1`, the melting point is 268 °C. Molecule `N#CCC(=O)c1ccc(Cl)c(Cl)c1` yielded a melting point of 116 °C. As to `O=C1OC(c2ccc(OP(=O)(O)O)cc2)(c2ccc(OP(=O)(O)O)cc2)c2ccccc21`, the melting point was 198 °C.
